Article PMC8715118, “Assessing potentiation of the (α4)3(β2)2 nicotinic acetylcholine receptor by the allosteric agonist CMPI” (The Journal of Biological Chemistry, 2021)
Read-outs that look alike come from different tables or passages of the source.

Key:
Type in all cases: cell-based
(α4K64T)3(β2)2 nAChR = target: T1, (α4K64T)3(β2)2 nAChR (Homo sapiens, UniProt P17787+P43681, K90T); test: Two-electrode voltage-clamp, oocytes expressing (α4K64T)3(β2)2 nAChR
T1 construct: expressed in transfected cells; host or cells: Xenopus laevis oocytes injected with cRNA, 8:1 α4:β2
Experimental: (§1) Oocytes-positive female Xenopus laevis were purchased from NASCO, and all procedures were performed according to an animal use protocol approved by the Institutional Animals Care and Use Committee of The University of Texas Health Science Center at Tyler. Ovarian lobules were surgically harvested, treated with collagenase type 2, and Stage V and VI oocytes were visually selected and maintained at 18 °C in modified ND96-gentamicin buffer (96 mM NaCl, 2 mM KCl, 1.8 mM CaCl2, 1 mM MgCl2, 5 mM Hepes, and 50 μg/ml gentamicin, pH 7.6).
(§2) pSP64 Poly(A) plasmids with cDNA encoding for human α4 or β2 nAChR subunit were used to prepare cRNA transcripts suitable for oocyte expression. The plasmids were linearized with AseI (hα4) and PvuII (hβ2), then cRNA transcripts were prepared in vitro using mMESSAGE mMACHINE high yield-capped RNA transcription kits (Ambion, Thermo Fisher Scientific), purified on NucAway Spin column (Invitrogen, Thermo Fisher Scientific), and stored at −80 °C until used. Point mutations within the plasmid encoding the α4 nAChR subunit were introduced using QuikChange II Site-Directed Mutagenesis Kit (Agilent Technologies), as described previously ([28]). To generate amino acid substitutions (K64T, E66I, H116V, H116L, and H116A), two custom-designed complementary oligos containing the desired mutation were used (Integrated DNA Technologies). The forward primers were as the following with the codon for mutated amino acids are underlined and nucleotide(s) changes are bolded and italicized:
(§3) The oocytes were injected with 10 to 50 ng of a cRNA mix containing α4 (WT or mutant) and β2 RNAs at ratios of 8:1(α4:β) or 1:8 (α4:β2) to bias expression toward (α4)3(β2)2 or (α4)2(β2)3 nAChRs, respectively. The injection of oocytes with RNAs mixture containing four folds or higher α4 RNA than β2 RNA have been established to express receptor population that is made up of three α4 and two β2 subunits ([9], [12], [28], [43], [44], [45]).
(§4) 24 to 72 h after cRNA injection, Xenopus oocytes were placed in a custom-made recording chamber that is connected to an eight-channel automated perfusion system (Warner Instruments) and perfused with recording buffer (100 mM NaCl, 2 mM KCl, 1 mM CaCl2, 0.8 mM MgCl2, 1 mM EGTA, and 10 mM Hepes, pH 7.5). Unless otherwise specified in figure legends, each recording run included several drug applications (10 s of an agonist with or without CMPI or NS9283) separated by 3 to 4 min buffer wash intervals. Between recording runs, the oocytes were washed with recording buffer for at last 5 min. […] The currents were digitized using Digidata 1550A (Axon Instruments, Molecular Devices), and the peak currents were quantified using pCLAMP 10 (Axon Instruments), then normalized and analyzed using Excel 2010 (Microsoft) and SigmaPlot 11.0 (Systat Software). […]

(α4H116A)3(β2)2 nAChR [1] = target: T2, (α4H116A)3(β2)2 nAChR (Homo sapiens, UniProt P17787+P43681, H142A); test: Two-electrode voltage-clamp, oocytes expressing (α4H116A)3(β2)2 nAChR
T2 construct: expressed in transfected cells; host or cells: Xenopus laevis oocytes injected with cRNA, 8:1 α4:β2
Experimental: as §1, §2, §3
(§5) 24 to 72 h after cRNA injection, Xenopus oocytes were placed in a custom-made recording chamber that is connected to an eight-channel automated perfusion system (Warner Instruments) and perfused with recording buffer (100 mM NaCl, 2 mM KCl, 1 mM CaCl2, 0.8 mM MgCl2, 1 mM EGTA, and 10 mM Hepes, pH 7.5). Unless otherwise specified in figure legends, each recording run included several drug applications (10 s of an agonist with or without CMPI or NS9283) separated by 3 to 4 min buffer wash intervals. Between recording runs, the oocytes were washed with recording buffer for at last 5 min. The oocytes were voltage-clamped at −50 mV using Oocyte Clamp OC-725B (Warner Instruments). The currents were digitized using Digidata 1550A (Axon Instruments, Molecular Devices), and the peak currents were quantified using pCLAMP 10 (Axon Instruments), then normalized and analyzed using Excel 2010 (Microsoft) and SigmaPlot 11.0 (Systat Software). For NS9283 and CMPI potentiation of agonist-induced responses, the peak currents were normalized to current elicited by agonist alone applied within the same recording run. For the effect of coapplication of 1 μM NS9283 or CMPI on agonist concentration-response curve, the peak currents were normalized to current elicited by saturating concentration of agonist applied within the same recording run. […] I0 = 100 for NS9283 and CMPI potentiation of agonist-induced responses and I0 = 0 for agonist concentration-response experiments. The best-fit values for Imax and EC50 ± SD are presented.

(α4H116V)3(β2)2 nAChR = target: T3, (α4H116V)3(β2)2 nAChR (Homo sapiens, UniProt P17787+P43681, H142V); test: Two-electrode voltage-clamp, oocytes expressing (α4H116V)3(β2)2 nAChR
T3 construct: expressed in transfected cells; host or cells: Xenopus laevis oocytes injected with cRNA, 8:1 α4:β2
Experimental: as §1, §2, §3, §4

(α4H116A)3(β2)2 nAChR [2] = target: T2, (α4H116A)3(β2)2 nAChR; test: Mechanistic (Monod-Wyman-Changeux two-state model) analysis of current responses, (α4H116A)3(β2)2 nAChR; settings: α4:α4 site; for Kd: read-out: KR,CMPI
Experimental: Further analysis of electrophysiological data was conducted in the framework of the two-state concerted transition model, adapted from the MWC cyclic model originally used to describe enzyme function ([31], [32], [33]). The raw peak amplitudes of current responses were converted to units of probability of being in the active state (PA).
The numbers of α4:β2 and α4:α4 binding sites (Nα4:β2 and Nα4:α4) were constrained to 2 and 1, respectively.
The concentration-response curve for TC-2559 was fitted to the following equation:(3) PA=1/1+L[1+[TC-2559]/KR,TC-2559,α4:β2/1+[TC-2559]/(KR,TC-2559,α4:β2cTC-2559,α4:β2)]^Nα4:β2
The concentration-response data were analyzed using Equation 3, with the value of L modified to reflect receptor activation by TC-2559, and the affinity and efficacy terms in the equation reflecting the values for CMPI. The number of binding sites for CMPI in Equation 3 was constrained to 1.
Curve fitting was done using Origin 2020 (OriginLab Corp). The results are reported as best-fit parameter ±SD of the fit. All data are included in the analysis.

(α4E66I)3(β2)2 nAChR = target: T4, (α4E66I)3(β2)2 nAChR (Homo sapiens, UniProt P17787+P43681, E92I); test: Two-electrode voltage-clamp, oocytes expressing (α4E66I)3(β2)2 nAChR
T4 construct: expressed in transfected cells; host or cells: Xenopus laevis oocytes injected with cRNA, 8:1 α4:β2
Experimental: as §1, §2, §3, §4

(α4)3(β2)2 nAChR = target: T5, (α4)3(β2)2 nAChR (Homo sapiens, UniProt P17787+P43681); test: Two-electrode voltage-clamp whole-cell currents, Xenopus oocytes expressing WT (α4)3(β2)2 nAChR
T5 construct: expressed in transfected cells; host or cells: Xenopus laevis oocytes injected with cRNA, 8:1 α4:β2
Experimental: as §1, §2, §3, §5

[3] = background of activity elicited by ACh
[4] = background of activity elicited by TC-2559

T2 sequence (P43681 27-627 H142A): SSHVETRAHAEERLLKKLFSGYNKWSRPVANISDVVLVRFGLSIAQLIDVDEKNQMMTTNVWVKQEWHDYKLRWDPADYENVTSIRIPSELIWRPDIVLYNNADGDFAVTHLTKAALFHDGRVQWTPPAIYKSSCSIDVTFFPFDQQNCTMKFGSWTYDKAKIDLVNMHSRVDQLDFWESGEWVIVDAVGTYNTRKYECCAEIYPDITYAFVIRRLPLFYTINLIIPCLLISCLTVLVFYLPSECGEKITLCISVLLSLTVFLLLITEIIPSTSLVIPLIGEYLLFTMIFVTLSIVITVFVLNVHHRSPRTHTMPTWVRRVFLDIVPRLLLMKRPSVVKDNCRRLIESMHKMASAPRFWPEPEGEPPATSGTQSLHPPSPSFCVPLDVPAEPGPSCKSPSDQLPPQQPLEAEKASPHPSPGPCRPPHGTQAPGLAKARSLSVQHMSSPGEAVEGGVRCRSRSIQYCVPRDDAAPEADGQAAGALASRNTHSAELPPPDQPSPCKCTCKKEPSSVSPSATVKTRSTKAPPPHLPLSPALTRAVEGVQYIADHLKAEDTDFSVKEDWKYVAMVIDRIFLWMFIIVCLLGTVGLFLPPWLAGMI
T2 sequence (P17787 26-502): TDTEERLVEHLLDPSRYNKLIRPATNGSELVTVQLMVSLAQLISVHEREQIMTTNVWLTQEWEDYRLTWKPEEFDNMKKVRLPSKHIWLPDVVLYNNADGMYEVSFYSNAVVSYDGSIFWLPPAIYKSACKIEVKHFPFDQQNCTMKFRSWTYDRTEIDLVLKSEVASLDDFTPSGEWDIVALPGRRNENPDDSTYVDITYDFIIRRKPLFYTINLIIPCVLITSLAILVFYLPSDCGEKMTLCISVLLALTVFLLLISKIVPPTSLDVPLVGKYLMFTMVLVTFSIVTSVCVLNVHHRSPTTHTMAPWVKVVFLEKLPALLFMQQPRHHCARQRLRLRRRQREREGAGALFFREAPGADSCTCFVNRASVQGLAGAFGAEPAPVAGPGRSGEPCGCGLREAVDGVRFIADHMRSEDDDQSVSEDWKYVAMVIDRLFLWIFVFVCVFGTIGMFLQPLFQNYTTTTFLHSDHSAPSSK
T5 sequence (P43681 27-627): as the sequence (P43681 27-627 H142A) above, with A116H counted along it
T5 sequence (P17787 26-502): as the sequence (P17787 26-502) above
T3 sequence (P43681 27-627 H142V): as the sequence (P43681 27-627 H142A) above, with A116V counted along it
T3 sequence (P17787 26-502): as the sequence (P17787 26-502) above
T1 sequence (P43681 27-627 K90T): as the sequence (P43681 27-627 H142A) above, with K64T, A116H counted along it
T1 sequence (P17787 26-502): as the sequence (P17787 26-502) above
T4 sequence (P43681 27-627 E92I): as the sequence (P43681 27-627 H142A) above, with E66I, A116H counted along it
T4 sequence (P17787 26-502): as the sequence (P17787 26-502) above

## Cc1c(-c2cc(-c3ccccc3Cl)no2)cnn1C1CCNCC1 [CMPI, 3-(2-chlorophenyl)-5-(5-methyl-1-(piperidin-4-yl)-1H-pyrrazol-4-yl)isoxazole]
(α4K64T)3(β2)2 nAChR; ACh (1 mM)
  potentiation fold (Ave ± SD), agonist + 1 μM modulator / agonist alone: 0.91 ± 0.08
(α4K64T)3(β2)2 nAChR; TC 2559 (30 μM)
  potentiation fold (Ave ± SD), agonist + 1 μM modulator / agonist alone: 1.17 ± 0.21
(α4H116A)3(β2)2 nAChR [1]; ACh (1 mM)
  potentiation fold (Ave ± SD), agonist + 1 μM modulator / agonist alone: 1.07 ± 0.13
(α4H116A)3(β2)2 nAChR [1]; TC 2559 (30 μM)
  potentiation fold (Ave ± SD), agonist + 1 μM modulator / agonist alone: 0.74 ± 0.13
(α4H116A)3(β2)2 nAChR [1]; TC-2559-induced current, normalized to 1 μM TC-2559
  Imax of potentiation, % of control: 634 ± 77%
(α4H116A)3(β2)2 nAChR [1]; normalized to 1 μM TC-2559, read-out: EC50 of potentiation of TC-2559-induced current
  EC50: 200 ± 100 nM
(α4H116V)3(β2)2 nAChR; ACh (1 mM)
  potentiation fold (Ave ± SD), agonist + 1 μM modulator / agonist alone: 0.76 ± 0.05
(α4H116V)3(β2)2 nAChR; TC 2559 (30 μM)
  potentiation fold (Ave ± SD), agonist + 1 μM modulator / agonist alone: 3.01 ± 0.39
(α4H116A)3(β2)2 nAChR [2]; [3]
  cCMPI: 0.082 ± 0.007
  Kd: 440 ± 120 nM
(α4H116A)3(β2)2 nAChR [2]; [4]
  cCMPI: 0.099 ± 0.009
  Kd: 230 ± 80 nM
(α4E66I)3(β2)2 nAChR; ACh (1 mM)
  potentiation fold (Ave ± SD), agonist + 1 μM modulator / agonist alone: 0.83 ± 0.10
(α4E66I)3(β2)2 nAChR; TC 2559 (30 μM)
  potentiation fold (Ave ± SD), agonist + 1 μM modulator / agonist alone: 0.99 ± 0.15
(α4)3(β2)2 nAChR; 1 μM TC-2559
  maximal potentiation: 880 ± 13%
(α4)3(β2)2 nAChR; 1 μM TC-2559 + CMPI
  maximal potentiation equivalent, % of current elicited by 1 mM ACh: 44.6%
(α4)3(β2)2 nAChR; 1 μM cytisine
  maximal potentiation, % of control: 716 ± 59%
(α4)3(β2)2 nAChR; 1 μM modulator, ACh, nicotine, cytisine, TC-2559, p < 0.001
  effect on responses to agonists at subsaturating concentrations: potentiated
(α4)3(β2)2 nAChR; 1 μM modulator, except for TC-2559
  effect on responses to saturating concentrations of the tested agonists: did not potentiate
(α4)3(β2)2 nAChR; 1 μM nicotine
  maximal potentiation, % of control: 618 ± 34%
(α4)3(β2)2 nAChR; 10 μM TC-2559
  maximal potentiation: 634 ± 94%
(α4)3(β2)2 nAChR; 10 μM TC-2559 + CMPI
  maximal potentiation equivalent, % of current elicited by 1 mM ACh: 48.4%
(α4)3(β2)2 nAChR; ACh (1 mM), 1 μM modulator
  potentiation fold (Ave ± SD), agonist + 1 μM modulator / agonist alone: 0.81 ± 0.15
(α4)3(β2)2 nAChR; TC 2559 (30 μM), 1 μM modulator
  potentiation fold (Ave ± SD), agonist + 1 μM modulator / agonist alone: 6.41 ± 2.15
(α4)3(β2)2 nAChR; receptors activated by 1 μM cytisine, read-out: EC50 for potentiation
  EC50: 340 ± 80 nM
(α4)3(β2)2 nAChR; receptors activated by 1 μM nicotine, read-out: EC50 for potentiation
  EC50: 270 ± 40 nM
(α4)3(β2)2 nAChR; responses induced by 1 μM TC-2559, read-out: potentiation EC50
  EC50: 110 ± 10 nM
(α4)3(β2)2 nAChR; responses induced by 10 μM TC-2559, read-out: potentiation EC50
  EC50: 90 ± 40 nM
